Here are results for one substance from patent US11834496B2, “Composition of a drug carrier, pharmaceutical composition thereof, preparation method and use method thereof” (EOS BIOMATERIALS INC., priority 2020, dated 2023).

This series can be described thus: Drug release rate test of pharmaceutical composition (dialysis bag in PBS, HPLC). The class given is physicochemical. To be noted: 37° C.; for drug release rate: gentamicin 50 mg, 200 ml PBS. The protocol: In this test, a total of 3 ml solutions of the first and second mixtures (the weight ratio of sodium alginate:tricalcium phosphate:methylcellulose:sodium hyaluronate:calcium chloride was 36:36:15:80:20) and 50 mg of gentamicin were mixed to prepare a pharmaceutical composition containing gentamicin to be an experimental group. Then, the pharmaceutical composition containing gentamicin was placed in a dialysis bag. At the same time, 50 mg of gentamicin was dissolved in 3 ml of water as a control group.
Next, two 500 ml beaker were respectively added with 200 ml of phosphate buffered saline (PBS) solution. The prepared solutions of the experimental group and control group were respectively placed in dialysis bags, which were then placed in the PBS solutions. After that, the beakers, containing the dialysis bag and the PBS solution, were slightly shaken at 37° C. to allow the release of the drug from the dialysis bag to the PBS solution. In the drug release period, the PBS solution of the experimental and control groups are sampled at 15 minutes, 30 minutes, 45 minutes, 60 minutes, 75 minutes, 90 minutes, 105 minutes, 120 minutes, 150 minutes, 180 minutes, 1 day, 2 days, 3 days, 4 days, 5 days, 6 days, and 7 days, from the time start shaking. The sampled volume of the PBS solutions in beakers was 1 mL, and 1 mL of fresh PBS solution was added back to the sampled beakers. The concentrations of the gentamicin released in the PBS solution from the dialysis bag were analyzed by high performance liquid chromatography (HPLC).

Regarding gentamicin, the “cumulative release amount of the gentamicin released in the PBS solution” value (PBS, in less than 30 hours) was around 100%. Further, the drug release rate entry is given as “much faster” (within 180 hours, relative to experimental group) and “much faster” (within the first 3 hours).
